Earlier results as cited in patent US20230338413A1, “ORAL DELIVERY OF HEPARINS” (GUANGZHOU DAZHOU BIOMEDICINE LTD., priority 2021, published 2023).

In the case of `O=C([O-])CCCCCCCNC(=O)c1ccccc1O.[Na+]` [SNAC, sodium N-(8-(2-hydroxybenzoyl)amino)caprylate], the Effects on coagulation (SNAC by itself, initial clinical studies) is given as “no effects on coagulation” and the “Measurements of anticoagulation (aPTT, TFPI and anti-Factors IIa and Xa levels)” value (human subjects, single oral dose: 30,000 USP Heparin Units alone or SNAC alone 1.4 to 10.5 g) is given as “did not change”.
